The text below walks through data of patent US11008290B2, “Halogenated quinoline derivatives as antimicrobial agents” (University of Florida Research Foundation, Incorporated, priority 2015, dated 2021).

One series relates to S. epidermidis. In words: MIC, antibacterial profile of broxyquinoline and HQ-1 (FIG. 2A). Format: cell-based. The following applies: Staphylococcus epidermidis.
Another series deals with A. baumannii. The description is as above. Type of series: cell-based, Acinetobacter baumannii.
A further series relates to S. aureus. The description is as above. Type of series: cell-based. The following applies: Staphylococcus aureus.
The test system of series [1] is MRSA-2 planktonic cells and biofilms. In words: Calgary Biofilm Device (CBD) MBC/MBEC determination. Type of series: cell-based, Staphylococcus aureus. Conditions: CBD; for MBC: planktonic killing, first value of MBC/MBEC cell. The gist of the method:
(§1)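 Biofilms grown on pegs for 24 h at 37° C. from mid-log cultures diluted 1,000-fold in TSBG, then exposed to 2-fold serial compound dilutions for 24 h at 37° C. MBC taken as the lowest concentration without visible turbidity. MBEC read as turbidity after pegs regrew for 24 h in fresh TSBG; in select runs, sonicated pegs were plated for CFU/mL.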

For the next series, the system named is MRSA BAA-1707. The series is described as above. Type of series: cell-based, Staphylococcus aureus. The following applies: Table 4, CBD. The essentials:
as §1

In a further series the test system is human red blood cells. In words: Hemolysis assay. Type of series: cell-based. The gist of the method:
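EDTA-anticoagulated fresh cells were washed in Tris-buffered saline (pH 7.2), then incubated with compound for 1 h at 37 °C. Supernatant OD405 measured after centrifugation; % hemolysis = (compound − DMSO)/(Triton X − buffer).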

For series [2], the system named is MRSE (ATCC 35984) planktonic cells and biofilms. The series can be described thus: Calgary Biofilm Device (CBD) MBC/MBEC determination. Type of series: cell-based, Staphylococcus epidermidis. Conditions: CBD; for MBC: planktonic killing, first value of cell. The gist of the method:
as §1

In another series the test system is MRSA-2. In words: Mechanistic investigations with metal(II)-cations (MIC assay with 200 μM metal salt). Format: cell-based, Staphylococcus aureus. Conditions: MRSA-2. The procedure: (§2) The minimum inhibitory concentration (MIC) for each compound was determined by the broth microdilution method as recommended by the Clinical and Laboratory Standards Institute (CLSI). In a 96-well plate, eleven two-fold serial dilutions of each compound were made in a final volume of 100 μL Luria Broth. Each well was inoculated with ˜10^5 bacterial cells at the initial time of incubation, prepared from a fresh log phase culture (OD600 of 0.5 to 1.0 depending on bacterial strain). […] The concentration range tested for each compound during this study was 0.10 to 100 μM. DMSO served as the vehicle and negative control in each microdilution MIC assay. DMSO was serially diluted with a top concentration of 1% v/v. Bacterial strains used: methicillin-resistant Staphylococcus aureus-2 (MRSA-2; clinical isolate from Shands Hospital in Gainesville, Fla.), methicillin-resistant Staphylococcus epidermidis (MRSE; ATCC 35984), vancomycin-resistant Enterococcus faecium (VRE, ATCC 700221).

In series [3] the test system is VRE (ATCC 700221) planktonic cells and biofilms. The series can be described thus: Calgary Biofilm Device (CBD) MBC/MBEC determination. Type of series: cell-based, Enterococcus faecium. The following applies: CBD; for MBC: planktonic killing, first value of cell. The gist of the method:
as §1

Series [4] has as its system methicillin-resistant Staphylococcus epidermidis (MRSE; ATCC 35984). In words: Minimum inhibitory concentration (MIC) susceptibility assay, broth microdilution. Type of series: cell-based. Conditions: for MIC: Table 2, ATCC 35984, read-out: MRSE MIC. The essentials: (§3)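 Broth microdilution per CLSI in Luria Broth, eleven two-fold dilutions spanning 0.10–100 μM, ~10^5 log-phase cells per well; DMSO vehicle up to 1% v/v. MRSA-2 is a clinical isolate. Metal-cation mechanistic MICs included 200 μM metal salt.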

The subject of series [5] is vancomycin-resistant Enterococcus faecium (VRE, ATCC 700221). The series is described as above. Format: cell-based. The gist of the method: as §3
Series [6] has as its system MRSA-2, MRSE 35984, VRE 700221. In words: MIC assays, range stated over the three drug-resistant pathogens. The following applies: range over MRSA-2, MRSE, read-out: MIC against these drug-resistant pathogens. Type of series: cell-based. How it is done: as §2
Series [7] has as its system methicillin-resistant Staphylococcus aureus-2 (MRSA-2; clinical isolate). In words: Minimum inhibitory concentration (MIC) susceptibility assay, broth microdilution. Format: cell-based. The following applies: Staphylococcus, MRSA. The gist of the method:
as §3

The mark [8] stands for this setting: Table 2, biofilm eradication, second value of cell.

Converted amounts (≈) assume the structure as drawn. “And” between values parts separate entries of the source, which are not always exact repeats. Identical values can stand only once. Like-named read-outs stand apart in the source and are kept apart here. Marks after values point to notes of the source that are not given here.

As for `Oc1c(Br)cc(Br)c2cccnc12` [Broxyquinoline], the MIC in the series on S. epidermidis was 12.5 µM and 4 µg/mL; in the series on A. baumannii (Acinetobacter baumannii, read-out: MIC) it was 12.5 µM and 4 µg/mL; with S. aureus, 12.5 µM and 4 µg/mL.

In the case of `Cc1ccc2c(Br)cc(Br)c(O)c2n1` [HQ-1, reference compound], in [1] (Table 2, biofilm eradication, second value of MBC/MBEC cell), the “MRSA-2 Clinical Isolate MBEC” value was found to be 188 µM. Also, the MBC stood at 23.5 µM (≈ 7.45 µg/mL) in series [1] (Table 2, read-out: MRSA-2 Clinical Isolate MBC); 23.5 µM (≈ 7.45 µg/mL) in series [1] (Table 3, read-out: MRSA-2 MBC); 62.5 µM (≈ 19.8 µg/mL) in the series with MRSA BAA-1707 (planktonic killing, first value of cell, read-out: MRSA BAA-1707 MBC); 31.3 µM (≈ 9.92 µg/mL) in series [2] (Table 2, read-out: MRSE ATCC 35984 MBC); 31.3 µM (≈ 9.92 µg/mL) in [2] (Table 3, read-out: MRSE MBC); 2.0 µM (≈ 0.634 µg/mL) in series [3] (Table 2, read-out: VRE ATCC 700221 MBC). In addition, the MBC in series [3] (Table 3, footnote c = lowest concentration tested, read-out: VRE MBC) was 2.0 µM (≈ 0.634 µg/mL). Also, the “MRSA-2 MBEC” value in series [1] (Table 3, biofilm eradication, second value of MBC/MBEC cell) was 188 µM. The “MRSA BAA-1707 MBEC” value in the series on MRSA BAA-1707 (biofilm eradication, second value of cell) came to 46.9 µM. Also, the “% Haemolysis at 200 μM” value in the series with human red blood cells (Table 2, human red blood cells, 1 hour at 37° C.) is listed as not above 1%; in the series on human red blood cells (Table 3, human red blood cells), not above 1%. Also, the “MRSE ATCC 35984 MBEC” value in series [2] (setting [8]) stood at 93.8 µM. Besides, the “MRSE MBEC” value in [2] (Table 3, biofilm eradication, second value of cell) was determined as 93.8 µM. Besides, the MIC in the series on A. baumannii was found to be 32 µg/mL; with A. baumannii (read-out: MIC), 100 µM; in the series with MRSA-2 (200 μM magnesium (II) sulfate, read-out: MIC w/Mg^2+), 1.56 µM; in series [4], 0.39 µM (≈ 0.124 µg/mL). Also, in the series on MRSA-2 (200 μM ammonium iron (II) sulfate hexahydrate), the “MIC w/Fe^2+” value was >100^b μM and >100^c μM. Also, the “MIC w/Cu^2+” value in the series with MRSA-2 (200 μM copper (II) sulfate) was 25^b μM and 25^c μM. For the same compound, the “MIC w/Zn^2+” value in the series with MRSA-2 (200 μM zinc (II) chloride) was 0.15^a,b μM and 0.1^a,c μM. In addition, the “VRE ATCC 700221 MBEC” value in [3] (setting [8]) stood at 1.5 µM. For the same compound, the “VRE MBEC” value in series [3] (Table 3, biofilm eradication, second value of cell, footnote c = lowest concentration tested) was found to be 1.5 µM. Moreover, the “MRSE MIC” value in [4] (Table 3) was 0.30^a μM. In series [5] (Table 3), the “VRE MIC” value is on record as 2.35^a μM.

As for `Cc1c(Br)cc(NCc2ccc3c(Br)cc(Br)c(O)c3n2)cc1Br` [HQ-7], the MBC in [1] (Staphylococcus aureus, MRSA, Table 2, read-out: MRSA-2 Clinical Isolate MBC) is 500 µM (≈ 290 µg/mL); in series [2] (Staphylococcus epidermidis, Table 2, read-out: MRSE ATCC 35984 MBC), 250 µM (≈ 145 µg/mL); in [3] (Enterococcus, Table 2, read-out: VRE ATCC 700221 MBC), 125 µM (≈ 72.5 µg/mL). For the same compound, the “% Haemolysis at 200 μM” value in the series with human red blood cells (human, 1 h, pH 7.2) is not above 1%. Besides, the MIC in series [6] is 9.38 to 75 µM (≈ 5.44 to 43.5 µg/mL); in the series on MRSA-2 (Staphylococcus aureus, 200 μM ammonium iron (II) sulfate hexahydrate, read-out: MIC w/Fe^2+), more than 100 µM; in the series with MRSA-2 (Staphylococcus aureus, 200 μM copper (II) sulfate, read-out: MIC w/Cu^2+) it was more than 100 µM; in the series on MRSA-2 (Staphylococcus aureus, 200 μM magnesium (II) sulfate, read-out: MIC w/Mg^2+), more than 100 µM; in the series on MRSA-2 (Staphylococcus aureus, 200 μM zinc (II) chloride, read-out: MIC w/Zn^2+), more than 100 µM; in series [4] (Staphylococcus epidermidis), 9.38 µM (≈ 5.44 µg/mL). In addition, the MIC was 18.8 µM (≈ 10.9 µg/mL) in series [7] (Table 2, 2 to 6 independent experiments, read-out: MRSA-2 MIC); more than 100 µM in series [7] (read-out: MIC); 75 µM (≈ 43.5 µg/mL) in series [5] (Table 2, ATCC 700221, read-out: VRE MIC).
